# Results: article PMC8157569 (Pharmaceuticals, 2021)
# Where a name gives a salt, the structure may show the parent alone.
# Target: T1, α1A-adrenoceptor (Homo sapiens, UniProt P35348)
# T1 construct: gene ADRA1A
# T1 sequence (P35348 1-466): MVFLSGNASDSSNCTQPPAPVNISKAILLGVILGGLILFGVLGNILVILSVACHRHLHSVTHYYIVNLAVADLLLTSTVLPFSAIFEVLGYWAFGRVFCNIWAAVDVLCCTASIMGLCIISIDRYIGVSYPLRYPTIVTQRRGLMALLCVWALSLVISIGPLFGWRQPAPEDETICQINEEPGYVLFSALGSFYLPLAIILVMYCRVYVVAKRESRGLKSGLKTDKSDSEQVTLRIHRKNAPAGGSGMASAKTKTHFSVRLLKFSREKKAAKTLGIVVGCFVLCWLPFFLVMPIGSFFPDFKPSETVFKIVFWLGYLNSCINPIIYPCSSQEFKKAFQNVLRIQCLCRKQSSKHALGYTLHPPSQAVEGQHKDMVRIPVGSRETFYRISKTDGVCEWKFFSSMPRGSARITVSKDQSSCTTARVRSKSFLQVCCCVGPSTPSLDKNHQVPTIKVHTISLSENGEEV
# Assay: aequorin luminescence calcium assay, antagonist mode against phenylephrine, cells stably expressing human α1A-adrenoceptor
# Type: cell-based
compound,measurement,value
"COc1ccccc1N1CCN(CCCOc2c(C)cccc2C)CC1 [MH-76, 1-[3-(2,6-dimethylphenoxy)propyl]-4-(2-methoxyphenyl)piperazine hydrochloride]",IC50,1.42 nM
